Tested on: caspase-3/7
Assay: In vivo bioluminescent imaging of VivoGlo Caspase-3/7 substrate and caspase-3/7 inactive substrate(s)
Settings: mice bearing tumors stably expressing luciferase, treated with apoptosis-inducing cytotoxic therapy (e.g. docetaxel); substrate 62.5 mg/mL intraperitoneally; detected 5-30 minutes post injection
Procedure: In luciferase-expressing cells undergoing apoptosis, caspase-3/7 will cleave the DEVD peptide from the VivoGlo™ Caspase-3/7 substrate, allowing it to be a substrate for luciferase photon production. […] The photon emission will be detected with a photodetector device at timepoints from 5-30 minutes post injection and quantified.

Z-DEVD-aminoluciferin [VivoGlo Caspase-3/7]
bioluminescent signal (photon emission): significant bioluminescent signal
